Experimental data: patent US20240335404A1, “SUBSTITUTED ESTERS CONTAINING POLYOLS AND SACCHARIDES FOR TREATING HEPATOTOXICITY AND FATTY LIVER DISEASES” (SINEW PHARMA INC., priority 2015, published 2024)

System: Liver Injuries Induced by APAP
Assay: Liver injuries induced by APAP in rats (GSP, AST/ALT, HAI, survival)
Type: in vivo, SD (Sprague-Dawley) rats
Settings: APAP 2,000 mg/kg; for histological analysis of liver tissue, H&E: FIG. 4
Experimental: Male SD (Sprague-Dawley) rats weighing 175-280 g were purchased from the National Laboratory Animal Center (NLAC), Taiwan. The study was conducted in accordance with the Guidelines for Conducting Animal Studies of the National Health Research Institute and all rats were placed in the air/humidity controlled environment under the 12 hours of day/12 hours of night cycle and with unlimited water and food supply. During the course of the study, the weights of rats were monitored continuously with normal water supply.
In the normal control (Group 1), animals were not fed with APAP. In the control group of APAP-induced liver injuries (Group 2), animals were fed with a single dose of APAP in the amount of 2,000 mg per kilogram of body weight to induce hepatotoxicity. In the positive control group of treatment with NAC (Group 3), animals were fed with a single dose of APAP in the amount of 2,000 mg per kilogram of body weight to induce hepatotoxicity, and 4 hours later, a 24-hour treatment period by tube feeding was started, including first administration of 140 mg of NAC (per kilogram of body weight) and later administration of 70 mg of NAC (per kilogram of body weight) every 4 hours for five times. In the experimental group (Group 4), animals were fed with a single dose of APAP in the amount of 2,000 mg per kilogram of body weight to induce hepatotoxicity, and 4 hours later, a 24-hour treatment period by tube feeding was started, including six dosing with the ingredients of the present invention every 4 hours, as follows: • (a) (Group 4.1): administration of mannitol at a dose less than or equivalent to 100 mg per person every 4 hours for 24 hours, • (b) (Group 4.2): administration of double dose of mannitol as in Group 4.1 every 4 hours for 24 hours, • (c) (Group 4.3): administration of sucralose at a dose less than or equivalent to 100 mg per person every 4 hours for 24 hours, • (d) (Group 4.4): administration of double dose of sucralose of Group 4.3 every 4 hours for 24 hours, • (e) (Group 4.5): administration of a combination of 0.5 times the dose of mannitol as in Group 4.1 and 0.5 times the dose of sucralose as in Group 4.3 per kilogram of body weight every 4 hours for 24 hours, • (f) (Group 4.6): administration of a combination of the dose of mannitol as in Group 4.1 and the dose of sucralose as in Group 4.3 every 4 hours for 24 hours, • (g) (Group 4.7): administration of a combination of 1.5 times the dose of mannitol as in Group 4.1 and 1.5 times the dose of sucralose as in Group 4.3 every 4 hours for 24 hours, • (h) (Group 4.8): administration of a combination of double dose of mannitol as in Group 4.1 and double dose of sucralose as in Group 4.3 every 4 hours for 24 hours, and • (i) (Group 4.9): first administration of 140 mg of NAC per kilogram of body weight and later administration of a combination of 70 mg of NAC plus double dose of mannitol as in Group 4.1 and double dose of sucralose as in Group 4.3 every 4 hours for five times.
After the 24-hour treatment period, blood was collected from the tail artery of the rats for AST/SLT assays. Subsequently, rats were subjected to GSP tests. Finally, rats were sacrificed and histological analysis was performed.
After completion of the treatments, rats were sacrificed under ether anesthesia, and blood was collected from the tail artery of the rats and placed in a test tube containing EDTA. The plasma was centrifuged at 13,000 at 4° C. for 15 minutes and the isolated plasma was transferred to Eppendorf tubes in aliquots and stored at −80° C.
Liver damage is quantified by measuring plasma AST and ALT activity. AST and ALT are common indicators of hepatotoxicity and are measured by using the Synchron LXi 725 system (Beckman Instruments, U.S.).
Following scarification of the rats, histological analysis was performed.

[1] = dose less than or equivalent to 100 mg per person (mannitol, sucralose: × 6)
[2] = dose less than or equivalent to 100 mg per person (mannitol, sucralose: × 6), Day 14
[3] = double dose of Group 4.1 / Group 4.3, × 6
[4] = double dose of Group 4.1 / Group 4.3, × 6, Day 14

Q: For OC[C@@H](O)[C@@H](O)[C@H](O)[C@H](O)CO [Mannitol], which “effect on APAP-induced liver injuries and survival rate” value is on record?
A: liver injuries and survival rate can be improved

Q: What about the “histological analysis of liver tissue, H&E” value of the same compound?
A: hepatocytes are relatively intact with visible nucleus and less vacuolization

Q: What about the ALT [1] of the same compound?
A: 209 ± 16 IU/L

Q: What about the AST [1] of the same compound?
A: 455 ± 78 IU/L

Q: What about the GSP [1] of the same compound?
A: 565 ± 177 mg/L

Q: What about the “Total HAI score” value [1] of the same compound?
A: 4.0 ± 0.0

Q: What about the “Survival (Day 14, n/n)” value [2] of the same compound?
A: 1/3

Q: And the ALT [3]?
A: 166 ± 15 IU/L

Q: What about the AST [3] of the same compound?
A: 300 ± 40 IU/L

Q: What about the GSP [3] of the same compound?
A: 354 ± 56 mg/L

Q: And the “Total HAI score” value [3]?
A: 4.0 ± 1.0

Q: And the “Survival (Day 14, n/n)” value [4]?
A: 3/3

Q: What does the source list for OC[C@H]1O[C@H](O[C@]2(CCl)O[C@H](CCl)[C@@H](O)[C@@H]2O)[C@H](O)[C@@H](O)[C@H]1Cl [Sucralose]?
A: effect on APAP-induced liver injuries and survival rate: liver injuries and survival rate can be improved; histological analysis of liver tissue, H&E: hepatocytes are relatively intact with visible nucleus and less vacuolization; ALT [1]: 154 ± 49 IU/L; AST [1]: 331 ± 41 IU/L; GSP [1]: 332 ± 42 mg/L; Total HAI score [1]: 4.0 ± 1.0; Survival (Day 14, n/n) [2]: 3/3; ALT [3]: 136 ± 48 IU/L; AST [3]: 277 ± 78 IU/L; GSP [3]: 309 ± 54 mg/L; Total HAI score [3]: 3.0 ± 1.0; Survival (Day 14, n/n) [4]: 3/3
